The results in this text go back to PMC5994430, “Mitochondrial Delivery of Phenol Substructure Triggers Mitochondrial Depolarization and Apoptosis of Cancer Cells” (Frontiers in Pharmacology, 2018).

Data set [1] can be described thus: Lipophilicity, shake-flask n-octanol/PBS pH 7.4. The class given is physicochemical. The settings on record: n-octanol/50 mM PBS pH 7.4, shake-flask, room temperature, at least six measurements. Here is the method: The partition coefficient between n-octanol and PBS at pH 7.4 (log P) was obtained by shake-flask technique at room temperature. In the shake flask experiments 50 mM PBS pH 7.4 was used as aqueous phase; the organic (n-octanol) and aqueous phase (PBS) were mutually saturated by shaking for 4 h. The compounds were solubilised in the buffered aqueous phase at a concentration of 30 μg/ml and appropriate amounts of n-octanol were added. The two phases were shaken for about 20 min, by which time the partitioning equilibrium of solutes is reached, and then centrifuged (10000 rpm, 10 min). The concentration of the solutes was measured in the aqueous phase by UV spectrophotometer (UV-2501PC, Shimadzu); the values of absorbance (223, 268 and 275 nm) were interpolated in calibration curves obtained using standard solutions of compounds (concentration range 30–0.5 μg/ml; r^2 > 0.99). Each log P-value is an average of at least six measurement.

Data set [2] deals with BEAS-2B cells. The experiment in a line: Cell viability (neutral red). Type of data set: cell-based, Human. The following applies: for IC50: Homo sapiens, BEAS-2B normal bronchial epithelial cells, cell viability, CompuSyn; for cell viability: BEAS-2B, 0.1, 1 or 10 μM, 72 h. The text has this: (§1) Human colon cancer HT29 cells, colon-derived normal fibroblast CCD-18Co cells, lung cancer A549 cells, normal human bronchial epithelial (immortalized with adenovirus 12-SV40 virus hybrid Ad12SV40) BEAS-2B cells, breast cancer MDA-MB-231 cells, normal breast epithelial MCF10A cells, human osteosarcoma U-2OS cells were purchased from ATCC (Manassas, VA, United States). […] All subjects gave written informed consent in accordance with the Declaration of Helsinki. Cells were maintained in medium supplemented with 10% v/v fetal bovine serum, 1% v/v penicillin-streptomycin, 1% v/v L-glutamine. Morphological analysis was performed with a bright field microscope (Leica Microsystems, Wetzlar, Germany). At least 5 fields/experimental condition were examined.
(§2) LDH activity was measured in the extracellular medium and in the cell lysate: 50 μl of extracellular medium or 5 μl of cell lysate were incubated at 37°C with 5 mM NADH. The reaction was started by adding 20 mM pyruvic acid and was monitored for 6 min, measuring absorbance at 340 nm using a Synergy HT Multi-Detection Microplate Reader (Bio-Tek Instruments, Winoosky, MT, United States). […] Both intracellular and extracellular enzyme activities were expressed as μmol NADH oxidized/min/dish. The results were expressed as percentage of extracellular LDH versus total (intracellular plus extracellular) LDH. […] The absorbance of untreated cells was considered as 100% viability; the results were expressed as percentage of viable cells versus untreated cells. IC50 was calculated with the CompuSyn software^1.

In data set [3] the test system is BEAS-2B cells. Description: Mitochondrial/cytosolic distribution by LC-ESI-MS. Type of data set: cell-based, Human. The following applies: 4 h incubation with 0.1 and 1 μM. Here is the method: (§3) Mitochondria were isolated as reported ([Riganti et al., 2013a]). To isolate mitochondrial fractions, 5 × 10^6 cells were washed twice in ice-cold PBS, then lysed in 0.5 ml buffer A (50 mM Tris, 100 mM KCl, 5 mM MgCl2, 1.8 mM ATP, 1 mM EDTA; pH 7.2), supplemented with protease inhibitor cocktail III (Calbiochem. La Jolla, CA, United States), 1 mM phenylmethylsulfonyl fluoride and 250 mM NaF. Samples were clarified by centrifuging at 650 × g for 3 min at 4°C. The supernatant was collected and centrifuged at 13,000 × g for 5 min at 4°C. This supernatant, containing the cytosolic fraction, was stored at -80°C until the use. The pellet containing mitochondria was washed in 0.5 ml buffer A and re-suspended in 0.25 ml buffer B (250 mM sucrose, 15 mM K2HPO4, 2 mM MgCl2, 0.5 mM EDTA, 5% w/v, BSA). A 50 μl aliquot was sonicated and used for the measurement of protein content or Western blotting; the remaining part was stored at -80°C until the use. To confirm the presence of mitochondrial proteins in the extracts and the absence of cytosolic contamination in the mitochondrial fraction, 10 μg of each sonicated sample were subjected to SDS–PAGE and probed with an anti-porin antibody (Abcam, Cambridge, United Kingdom), a mitochondrial marker, and with an anti-glyceraldehyde 3-phosphate dehydrogenase antibody (GAPDH; Santa Cruz Biotechnology Inc., Santa Cruz, CA, United States), a cytosolic marker. Mitochondrial extracts were used only if they had detectable levels of porin and undetectable levels of GAPDH. To exclude any mitochondrial contamination in the cytosolic extracts, the absence of porin and the presence of GAPDH in the latter was analyzed by Western blotting (Supplementary Figure S1). Nuclear proteins were extracted using the Nuclear Extract Kit (Active Motif, La Hulpe, Belgium). 10 μg of nuclear extracts were subjected to SDS–PAGE and probed with antibodies against: proliferator-activated receptor gamma coactivator 1-α (PGC-1α; Abcam), an index of increased mitochondrial biogenesis ([Buondonno et al., 2016]), or TATA box Binding Protein (TBP; Santa Cruz Biotechnology Inc.), as control of equal protein loading.
(§4) The amount of 1, 2, 15, and 16 in the mitochondrial and cytosolic fractions was determined by LC-ESI-MS analyses. LC-ESI-MS analyses were performed with an Acquity Ultra Performance LC^TM (Waters Corporation, Milford, MA, United States), equipped with BSM, SM, CM, and PDA detector. All the chromatographic separations were performed on a Zorbax Eclipse XDB-C18 (5 μm, 150 mm × 4.6 mm) (Agilent Technologies) as a stationary phase. The supernatant samples obtained from incubation were filtered through a 0.45 μm pore size PTFE membrane filter before use. Aliquots (5 μl) were injected onto the system and eluted with a mobile phase (flow rate, 0.5 ml/min) consisting of A, 0.1% formic acid solution, and B, acetonitrile. The following gradient was used: 0–5 min (A = 50%, B = 50%), 5–7 min (to A = 20%, B = 80%), 7–8 min (A = 20%, B = 80%), 8–10 min (to A = 50%, B = 50%). The eluate was injected into the electrospray ion source (ESI), and monitored using Micromass Quattro microTM API ESCi multi-mode ionization Enabled as detector. MS spectra were acquired and processed using MassLynx software. The operating conditions on the triple quadruple mass spectrometer were as follows: positive mode; drying gas (nitrogen) heated at 350°C at a flow rate of 800 l/h; nebulizer gas (nitrogen) at 80 l/h; capillary voltage in positive mode at 3000 V; cone voltage at 30 V. The molecular ion [M]^+ was employed for quantitative measurements of analytes. The values obtained from integration of the peak of compounds were interpolated in a calibration curve obtained using standard solutions at 0.01 to 5 μM. The amount of each compound in the mitochondrial and cytosolic fractions was expressed as pmol/mg proteins.
(§5) FIGURE 5 Intra-mitochondrial and cytosolic accumulation of TPP-derivatives. […]

In data set [4] the test system is A549 cells. Description: Mitochondrial/cytosolic distribution by LC-ESI-MS. The following applies: for intracellular hydrolysis of the ester to the parent phenol: 4 h incubation, 0.1 and 1 μM; for penetration into cells / intracellular concentration after direct incubation: A549, 4 h incubation with 0.1 and 1 μM; for mitochondrial vs cytosolic distribution after incubation with 2: 4 h incubation with 0.1 and 1 μM of 2; for cytosolic concentration of 15 after incubation with 1: cytosolic fraction. Type of data set: cell-based, Human. As for the experimental part:
as §3, §4, §5

The subject of data set [5] is A549 cells. The experiment in a line: Cell viability (neutral red). The class given is cell-based, Human. The settings on record: for IC50: cell viability, CompuSyn; for cell viability: A549, 0.1, 1 or 10 μM, 72 h.
Description: as §1, §2

`CC(=O)Oc1ccc(C[P+](c2ccccc2)(c2ccccc2)c2ccccc2)cc1.[Br-]` [Compound 1]: in data set [1], the logP (in general, the decadic logarithm of the partition coefficient of the neutral form, usually between octanol and water) was found to be 0.64. The IC50 (as a rule, the concentration at which inhibition is half-maximal) in data set [2] is 5.26 ± 0.25 µM. For the same compound, the “concentration in BEAS-2B cells compared with A549 cells” value in data set [3] is reported as “at least ten fold lower”. Moreover, in data set [4], the “intracellular hydrolysis of the ester to the parent phenol” value is “fast hydrolysis into phenol 15” and the penetration into cells entry is “penetrate in good extent”.

In the case of `O=C(Oc1ccc(C[P+](c2ccccc2)(c2ccccc2)c2ccccc2)cc1C(F)(F)F)c1ccccc1.[Br-]` [Compound 2], the logP in data set [1] was 3.15. Further, the half-maximal inhibitory concentration (IC50) is 7.36 ± 0.45 µM in data set [2]; 0.55 ± 0.07 µM in data set [5] (A549 lung cancer cells); under 1 µM in data set [5] (Homo sapiens, A549, A549 lung cancer cells). The “concentration in BEAS-2B cells compared with A549 cells” value in data set [3] was “at least ten fold lower”. For the same compound, the “mitochondrial vs cytosolic distribution after incubation with 2” value in data set [4] is recorded as “accumulate almost exclusively at mitochondrial level”. Further, the “intracellular hydrolysis of the ester to the parent phenol” value in data set [4] is “more stable with respect to acetate”. Further, the penetration into cells result in data set [4] is listed as “penetrate in good extent”.

Compound `Oc1ccc(C[P+](c2ccccc2)(c2ccccc2)c2ccccc2)cc1.[Br-]` [Compound 15] came in with a logP in data set [1] of 0.5. Further, the cell viability entry in data set [2] and in data set [5] was “nor reduced cell viability” in each case. The “intracellular concentration after direct incubation” value in data set [3] and in data set [4] was “very low” each time. The entries for the “cytosolic concentration of 15 after incubation with 1” value in data set [4] (4 h incubation with 0.1 μM of 1) and in data set [4] (4 h incubation with 1 μM of 1) were “below detection limit” and “very low”, respectively. Further, the “mitochondrial accumulation of 15 after incubation with 1” value in data set [4] (4 h incubation with 0.1 μM of 1, mitochondrial fraction) is “easily detectable”.

In data set [1], `Oc1ccc(C[P+](c2ccccc2)(c2ccccc2)c2ccccc2)cc1C(F)(F)F.[Br-]` [Compound 16] registered a logP of 1.02. Further, the cell viability entry in data set [2] and in data set [5] was “nor reduced cell viability” in each case. Moreover, the “intracellular concentration after direct incubation” value in data set [3] and in data set [4] was “very low” in each case. In addition, the “mitochondrial vs cytosolic distribution after incubation with 2” value in data set [4] is given as “accumulate almost exclusively at mitochondrial level”.
